In general, IC50 refers to the concentration needed to halve the response being measured. A high value points to a need for much substance. The Ki is the equilibrium dissociation constant of an inhibitor or competing ligand from its target.

The values below come from patent publication US9808434B2, “Compound for treating cancer and diabetes” (CITY OF HOPE, priority 2011, dated 2017).

Test [1] relates to ACL, adiponectin, C/EBPα, Glut4, PPARγ. Description: Adipogenic marker protein expression, Western blotting. Conditions: 7 days in DM + compound. Format: cell-based, mouse. The protocol: Post-confluent 3T3-L1 preadipocytes were differentiated for 7 days in the presence of differentiating media (DM), or DM+ test compounds (LR23 (5 μM, 25 μM, or 50 μM), LR59 (5 μM, 25 μM, or 50 μM), LR-90 (25 μM), ROS (50 μM), TSA (0.5 μM) or apicidin (1 μM)). Protein levels were analyzed by Western blotting and the relative expression of each protein was quantified using a densitometer and calculated according to the reference bands of β-actin (FIG. 8). Numbers above each blot represent fold increase over control (undifferentiated preadipocytes).
3T3-L1 preadipocytes cells were treated with differentiating media (DM) with COH-SR4 (1 μM, 3 μM, or 5 μM) or without for 7 days. […] As used in FIG. 9C, U=undifferentiated, D=differentiated with cocktail media.
On the technique in general: In western blotting, separated proteins are transferred to a membrane and probed.

A further test has as its system PBT028. Description: Glioma ATP viability assay, PBT028. Conditions: Table 1; 72 hours. Format: cell-based. Here is the method:
Cells of each cell line (U251, U87, PBT-017, PBT018, PBT003 and PBT028) were treated with various concentrations (0˜100 μM) of COH-SR4 for 72 hours. Cell viabilities were determined by ATP viability assays. Data were represented as a ratio to vehicle (DMSO) control, and plotted as mean±SEM (n=12) obtained from 2˜3 experiments (FIG. 34A).

A further test concerns the target T1, GSTP (Homo sapiens, UniProt P09211).
T1 construct: made in house; host or cells: E. coli BL21 (DE3)
Description: GSTP activity towards CDNB in the presence of GSR4. Format: biochemical. Conditions: activity towards CDNB; read-out: estimated Ki (product inhibitor of GSTP). Here is the method: Furthermore, GSTP activities towards CDNB were assessed in the presence of various concentration of GSR4. The GSTP activities decreased when the concentration of GSR4 increased (Table 3). Thus, […] was a product inhibitor of GSTP with an estimated Ki of less than 5 μM.

In a further test the test system is Hs600T. The test is described as follows: Colony formation assay, Hs600T. Conditions: 10 μM, vs untreated control. Format: cell-based, human. Here is the method: Cell survival was evaluated using a standard colony-forming assay. […] After 7 or 10 days, adherent colonies were fixed, stained with 0.5% methylene blue for 30 min and colonies were counted using the Innotech Alpha Imager HP (91).

The subject of the next test is B16 mouse melanoma tumor. The test is described as follows: Western-blot of signaling proteins in B16 tumor tissue lysates. Format: in vivo. Conditions: band density ratio. Here is the method:
Western-blot analyses of signaling proteins in tumor tissue lysates in control and COH-SR4 treated groups were shown in FIG. 58. Crude fraction (about 50 μg) and WB with various antibodies were used.

The test system of another test is H1618 cells. The test is described as follows: MTT assay, H1618. Conditions: Homo sapiens, 48 h. Format: cell-based. The protocol:
Cell density measurements were performed using a hemocytometer to count reproductive cells resistant to staining with trypan blue. Approximately 20,000 cells were plated into each well of 96-well flat-bottomed micro-titer plates. After 12 h or 24 h incubation at 37° C., medium containing either COH-SR4 (ranging 0-200 μM) or elesclomol (ranging 0-20 μM) were added to the cells. After 24 h, 48 h or 96 h incubation, 20 μL of 5 mg/mL MTT were introduced to each well and incubated for 2 h. The plates were centrifuged and medium was decanted. Cells were subsequently dissolved in 100 μl DMSO with gentle shaking for 2 h at room temperature, followed by measurement of OD570 (91).
The effect of COH-SR4 was first examined in a NCI panel of cancer cell lines, the results of which indicated good activity of COH-SR4 towards lung cancer (FIG. 78A). […] Values are presented as mean±SD from two separate determinations with eight replicates each (n=16) (FIG. 78B). […] Standard colony-forming assay was performed and the colonies were counted using Innotech Alpha Imager HP. […] TUNEL assay was performed using Promega fluorescence detection kit and examined using Zeiss LSM 510 META laser-scanning fluorescence microscope with filters 520 and 620 nm. […]
(Formazan colour is commonly taken as a measure of viable cells.)

Another test deals with H358 lung cancer. Format: in vivo. Conditions: day 60; 4 mg/kg b.w. oral alternate day; control 2.02±0.3 g. The protocol:
For lung cancer studies, twelve 10-weeks-old mice were divided into two groups of 6 animals (treated with corn oil (vehicle), and COH-SR4 compound 4 mg/kg b.w.). All animals were injected with 2×10^6 H358 cells suspensions in 100 μL of PBS, subcutaneously into one flank of each mouse. At the same time, animals were randomized treatment groups as well as control groups. Treatment was started 10 days after the implantation to see palpable tumor growth. Treatment consisted of 0.1 mg of COH-SR4/m ice in 200 μL corn oil by oral gavage alternate day. Control groups were treated with 200 μL corn oil by oral gavage alternate day. Animals were examined daily for signs of tumor growth. Tumors were measured in two dimensions using calipers. Photographs of animals were taken at day 1, day 10, day 14, day 18, day 30, and day 60 after subcutaneous injection.
Hsd: Athymic nude nu/nu mice obtained from Harlan, Indianapolis, Ind. were used for the oral administration of COH-SR4 on lung cancer progression in in-vivo xenograft model. Twelve 10-weeks-old mice were divided into two groups of 6 animals (treated with corn oil (vehicle), and COH-SR4 4 mg/kg b.w.). […] Animals were examined daily for signs of tumor growth and body weights were recorded. […] Tumors were measured in two dimensions using calipers. […] The absorption of orally administered COH-SR4 in mice was assessed.

T1 sequence (P09211 whole entry): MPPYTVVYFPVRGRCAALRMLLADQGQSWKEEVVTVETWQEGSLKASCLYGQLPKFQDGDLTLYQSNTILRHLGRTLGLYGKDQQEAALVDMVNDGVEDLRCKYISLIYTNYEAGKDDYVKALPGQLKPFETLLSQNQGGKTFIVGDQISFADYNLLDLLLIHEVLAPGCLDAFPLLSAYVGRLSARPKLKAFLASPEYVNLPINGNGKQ

As to `O=C(Nc1cc(Cl)cc(Cl)c1)Nc1cc(Cl)cc(Cl)c1` [COH-SR4, 1,3-bis(3,5-dichlorophenyl) urea], in test [1], the “expression of adipogenic markers” value is “decreased expression of key transcription factors (C/EBPα, PPARγ) and proteins (ACL, adiponectin, FAS)”. The compound further returned an IC50 in the test on PBT028 of 2000 nM. In addition, the Ki on GSTP was < 5000 nM. The compound further returned a colony formation in the test on Hs600T of 48±5%. Besides, in the test with B16 mouse melanoma tumor, the “Akt, ratio COH-SR4 group/Control Group” value worked out at 0.84; the “Bcl2, ratio COH-SR4 group/Control Group” value was determined as 0.39; the “Bim, ratio COH-SR4 group/Control Group” value stood at 5.8; the “CDK4, ratio COH-SR4 group/Control Group” value is recorded as 0.29. In the test with B16 mouse melanoma tumor, the “Cyclin B1, ratio COH-SR4 group/Control Group” value is 0.32; the “Fibronectin, ratio COH-SR4 group/Control Group” value is 0.22; the “Vimentin, ratio COH-SR4 group/Control Group” value came out at 0.39; the “pAMPK, ratio COH-SR4 group/Control Group” value was 3.1. In the test on B16 mouse melanoma tumor, the “pAkt, ratio COH-SR4 group/Control Group” value stood at 0.32. For the same compound, the IC50 in the test on H1618 cells was determined as 1500 ± 200 nM. The tumor weight in the test on H358 lung cancer worked out at 0.77 ± 0.2 g.
